Laboratory results from patent US4370336A, “3,5-Disubstituted-1H-1,2,4-triazole derivatives as antifertility agents” (priority 1981, dated 1983).
Like-named read-outs stand apart in the source and are kept apart here.

Experiments:
[1] = system: female Sprague-Dawley rats; assay: anti-reproductive activity in rats, subcutaneous; type: in vivo, Sprague-Dawley rat; conditions: Rattus norvegicus, sc; for responders at 20 mg/kg: 384 h, 20 mg/kg s.c. for five days from day 6 of pregnancy, sesame oil, autopsy day 16, read-out: reduction of live fetuses (share of treated rats)
Description: (§1) Representative experiments for assessing antifertility activity were carried out with female Syrian golden hamsters weighing 100 to 130 g. The animals were mated and the presence of sperm in the vagina was taken as evidence of mating. […] Pregnancy was later confirmed at the time of autopsy by presence of fetuses or implantation sites in the uterus. Even if an animal aborts the fetus, implantation scars still remain as evidence that the animal has been pregnant.
(§2) The animals were autopsied on day 14 of pregnancy and the uteri were examined for evidence of pregnancy (implantation sites, fetal resorptions or live fetuses), hemorrage, and evidence of abnormalities of the uterus, placenta or fetuses.
The same criteria and experimental conditions as above were also applied when the anti-reproductive activity of the compounds of the invention was investigated in other animal species such as, for instance, rats, dogs, monkeys and baboons. In representative experiments, female Sprague-Dawley rats weighing from 200 to 300 g. were treated subcutaneously with a dosage of 20 mg/kg of the compound to be tested, dissolved in sesame oil, for five consecutive days starting from day 6 of pregnancy.

hamsters = assay: antifertility activity in hamsters by oral route; type: in vivo, hamster; conditions: Mesocricetus auratus; for inhibition in vivo at 10 mg/kg: oral dosage of 10 mg/kg, read-out: reduction of live fetuses; for ED50: po, absence of live fetuses in 50% of the animals
Description: as §1, §2
The experiments for assessing this property were carried out on hamsters following the same procedure as above, with the obvious exception that the compounds were administered orally instead of subcutaneously.

[2] = system: female Syrian golden hamsters; assay: post-coital-post-implantation antifertility activity in hamsters, subcutaneous; type: in vivo, Syrian golden hamster; conditions: for ED50: Mesocricetus auratus, sc
Description: as §1, §2

[3] = hamsters, 100% activity (absence of live fetuses) in 50% of the animals, read-out: ED50

Compound	responders at 20 mg/kg [1] [%]	inhibition in vivo at 10 mg/kg (hamsters) [%]	ED50 [2, 3] [mg/kg]	ED50 [2] [mg/kg]	antifertility activity relative to the compounds of the invention ([2]; hamsters, 10 mg/kg s.c. daily for 5 days (days 4-8 of pregnancy), comparison)	ED50 (hamsters) [mg/kg]	ED50 ([1]; absence of live fetuses in 50% of the animals) [mg/kg]
COc1cccc(-c2n[nH]c(-c3ccc(C)cc3C)n2)c1 [Example 26, 5-(2,4-Dimethylphenyl)-3-(m-methoxyphenyl)-1H-1,2,4-triazole]	≥ 60	~60	0.04	–	–	–	–
COc1cccc(-c2n[nH]c(-c3cc(Cl)ccc3C)n2)c1 [Example 32, 5-(5-Chloro-2-methylphenyl)-3-(m-methoxyphenyl)-1H-1,2,4-triazole]	≥ 60	~60	0.35	–	–	–	–
c1ccc(-c2n[nH]c(-c3ccccc3)n2)cc1 [3,5-diphenyl-1H-1,2,4-triazole, reference compound]	–	–	–	6	much less active	–	–
Cc1ccc(-c2nc(-c3ccccc3)n[nH]2)c(C)c1 [Example 25, 5-(2,4-Dimethylphenyl)-3-phenyl-1H-1,2,4-triazole]	≥ 60	~60	0.2	–	–	–	–
CCc1ccccc1-c1nc(-c2ccc(OC)cc2)n[nH]1 [Example 36, 5-(o-Ethylphenyl)-3-(p-methoxyphenyl)-1H-1,2,4-triazole]	–	–	0.15	–	–	5	–
CCOc1cccc(-c2n[nH]c(-c3ccccc3CC)n2)c1 [Example 35, 3-(m-Ethoxyphenyl)-5-(o-ethylphenyl)-1H-1,2,4-triazole]	–	–	0.04	–	–	3	–
C=CCOc1cccc(-c2n[nH]c(-c3ccccc3C)n2)c1 [Example 10, 3-(m-Allyloxyphenyl)-5-(o-tolyl)-1H-1,2,4-triazole]	–	–	0.25	–	–	–	–
CCc1ccccc1-c1nc(-c2ccc3c(c2)OCO3)n[nH]1 [Example 22, 5-(o-Ethylphenyl)-3-(3,4-methylenedioxyphenyl)-1H-1,2,4-triazole]	≥ 60	~60	0.03	–	–	3	–
C=CCOc1cccc(-c2n[nH]c(-c3ccccc3CC)n2)c1 [Example 13, 3-(m-Allyloxyphenyl)-5-(o-ethylphenyl)-1H-1,2,4-triazole]	–	–	0.1	–	–	–	–
COc1cccc(-c2n[nH]c(-c3ccc(Cl)cc3C)n2)c1 [Example 30, 5-(4-Chloro-2-methylphenyl)-3-(m-methoxyphenyl)-1H-1,2,4-triazole]	≥ 60	~60	0.04	–	–	5	–
COc1cccc(-c2n[nH]c(-c3ccccc3C)n2)c1 [Example 1, 3-(m-Methoxyphenyl)-5-(o-tolyl)-1H-1,2,4-triazole]	≥ 60	~60	0.08	–	–	5	1
Cc1cc(Cl)ccc1-c1nc(-c2ccccc2)n[nH]1 [Example 29, 5-(4-Chloro-2-methylphenyl)-3-phenyl-1H-1,2,4-triazole]	≥ 60	~60	0.14	–	–	–	–
CCOc1cccc(-c2n[nH]c(-c3ccccc3C)n2)c1 [Example 9, 3-(m-Ethoxyphenyl)-5-(o-tolyl)-1H-1,2,4-triazole]	–	–	0.07	–	–	–	–
COc1cccc(-c2n[nH]c(-c3ccc(OC)cc3C)n2)c1 [Example 34, 5-(4-Methoxy-2-methylphenyl)-3-(m-methoxyphenyl)-1H-1,2,4-triazole]	–	–	0.2	–	–	–	–
CCc1ccccc1-c1nc(-c2cccc(F)c2)n[nH]1 [Example 18, 5-(o-Ethylphenyl)-3-(m-fluorophenyl)-1H-1,2,4-triazole]	≥ 60	~60	0.4	–	–	–	–
COc1ccccc1-c1n[nH]c(-c2ccccc2C)n1 [Example 4, 3-(o-Methoxyphenyl)-5-(o-tolyl)-1H-1,2,4-triazole]	≥ 60	~60	0.5	–	–	–	–
CCc1ccccc1-c1nc(-c2ccc(OC)c(OC)c2)n[nH]1 [Example 37, 5-(o-Ethylphenyl)-3-(3,4-dimethoxyphenyl)-1H-1,2,4-triazole]	–	–	0.05	–	–	–	–
